Test results reported in patent publication EP1075277B2, “METHODS FOR DETECTING AND INHIBITING ANGIOGENESIS” (The Regents of the University of California, priority 1998, dated 2012).
Entries after “also recorded” stand apart in the source; their conditions may differ.

What was measured:
[1] = test system: α5β1 HT29 colon carcinoma cells, CEF's, and HUVEC's; assay: Cell adhesion assay on vitronectin; format: cell-based; conditions: 1 µg/ml vitronectin coat
Text: (§1) HT29 integrin α5β1 cells, integrin α5β1 colon carcinoma cells (Varner et al., Mol. Biol. Cell 6:725-740 (1995)), and chick embryo fibroblasts (CEF's) were maintained in DMEM high glucose supplemented with 10% fetal bovine serum (FBS) and gentamycin. Human umbilical vein endothelial cells (HWEC's) were maintained in M199 medium containing sodium bicarbonate, HEPES, heparin, endothelial cell growth supplement, 20% FBS and gentamycin. Culture media and reagents were from Irvine Scientific (Irvine, CA).
(§2) The wells of 48 well culture dishes (Costar, Inc.) were coated with 1 µg/ml vitronectin, 2 µg/ml fibronectin (chick embryo fibroblasts and HUVEC's) or 10 µg/ml fibronectin (HT29-α5^+ cells) for 1 hr at 37°C, then blocked with 2% heat denatured BSA in PBS for 1 hr. […]
(§3) Cells were allowed to adhere to dishes for 20 min at 37°C. […] Crystal violet was extracted by incubation for 15 min in 10% acetic acid and absorbance at 562 nm determined as an indicator of number of cells bound. […]

[2] = test system: HT29 colon carcinoma cells lacking α5β1 expression; assay: Chick CAM tumor assay, HT29; format: in vivo; conditions: antibody 25 µg topically; for effect on tumor size (in words): peptide or small molecule 25 µM intravenously
Protocol: The chick CAM tumor assay was performed by placing ten million tumor cells on the surface of a CAM, and culturing the cells for one week. The resulting tumors were excised and cut into 50 mg fragments. […] Forty-eight hours later, CAM's were excised from the egg and the number of blood vessels entering the tumors were counted (as vessel branch points) .
Data was presented as mean blood vessel number per treatment group (+/- standard error of measurement). Each treatment group incorporated at least ten tumors per experiment. Representative tumors were photographed at 10X magnification. Tumors were excised from the egg and tumor weights were determined for each tumor. Data was presented as mean tumor weight per treatment group (+/- standard error of measurement). Statistical analyses were performed using Student's t-test.
HT29 colon carcinoma cells lacking α5β1 expression were grown on the CAM's of 10-day old embryos. These tumor cells secrete several angiogenic growth factors, including VEGF, TGFα, TGFβ, TNFα, and IL-8 (Anzano et al., Cancer Res. 49:2898-2904 (1989); Varner et. al., supra, 1995; Ellis et al., J. Biol. Chem. 273:1052-1057 (1998)). Integrin α5β1 negative tumor cells were used to distinguish the potential anti-tumor effects from anti-vasculature effects of integrin α5β1 antagonists.

[3] = test system: blood vessel branch points in chorioallantoic membranes (CAM's); assay: In ovo chick chorioallantoic membrane (CAM) angiogenesis assay; format: in vivo; conditions: for effect on bFGF-induced angiogenesis (in words): bFGF stimulated CAM
Text: Ten day old embryonated chicken eggs (McIntyre Poultry; Ramona CA) were candled to illuminate blood vessels under the shell and an area with a minimum of small blood vessels is identified. The CAM was dropped away from the eggshell in this area by grinding a small hole in the mineralized shell and applying pressure to the underlying inner shell membrane. This procedure caused an air pocket to shift from the wide end of the egg to the identified area and forcing a circular region of the CAM approximately 2 cm in diameter to drop away from the shell. A window was cut in the egg shell and a cortisone acetate pre-treated filter disc 5 mm in diameter that had been saturated in 1 µg/ml bFGF, VEGF, TNFα, IL-8 (Genzyme, Inc.; Cambridge MA) or saline was placed on the CAM. The window in the shell was sealed with adhesive tape and the egg was incubated for four days.
Anti-fibronectin antibodies (25 µg in 25 µl) also were applied topically to the CAM.
Fibronectin, vitronectin and fibronectin fragments (59 pmol in a final volume of 25 µl) were applied to stimulated or unstimulated CAM's. Peptide or small molecule antagonists of α5β1 (at a final serum concentration of 0-25 µM) also were injected intravenously into the chick circulation 24 hr later. CAM's were harvested on the fourth day of stimulation. Blood vessel branch points in the 5 mm filter disk area were counted at 30 X magnification in a blinded fashion as a size-independent quantitative indicator of vascular sprouting in response to growth factors. Angiogenesis is characterized by the sprouting of new vessels in response to growth factors. Thus, counting of blood vessel branch points is a useful quantitative means of obtaining an angiogenic index (Brooks et al., In "Methods in Molecular Biology" (Humana Press 1999). At least ten embryos were used per treatment group. Each experiment was performed a minimum of three times.
Data was evaluated in terms of average number of blood vessel branch points per treatment group +/- standard error of measurement. Statistical analyses were performed using Student's t-test. […]

[4] = test system: integrin α5β1 positive cells, including α5β1 HT29 colon carcinoma cells, CEF's, and HUVEC's; assay: Cell adhesion assay on fibronectin, results in words for the α5β1 positive cells together; format: cell-based; conditions: antibodies 50 µg/ml, cyclic peptides 10 µM, SJ749 0-10 µM
Text: as §1, §2, §3

α5^+ HT29 cells = assay: Cell adhesion assay on fibronectin, HT29-α5+ cells; format: cell-based; conditions: Homo sapiens, HT-29, 0-10 µM SJ749, Figure 1, read-out: half maximal inhibitory concentration, adhesion to fibronectin
Text: as §1, §2, §3

Integrin αVβ3 = molecular target: T1, Integrin αVβ3 (Homo sapiens, UniProt P05106+P06756); assay: Integrin receptor ligand binding assay, αVβ3 / vitronectin; conditions: biotinylated vitronectin for αVβ3
T1 construct: Integrin αVβ3 and α5β1 receptor purified from human placenta; purchased Chemicon International; host or cells: human placenta (tissue-purified, as the sentence is read)
Protocol: (§4) Integrin αVβ3 and α5β1 receptor purified from human placenta were obtained from Chemicon International. Platelet integrin αIIbβ3 was purified from platelets according to established procedures. Receptors were coated (100 µl/well) on Costar (3590) high capacity binding plates overnight at 4°C. Coating solution was discarded and plates were washed once with blocking/binding (B/B) buffer (50 mM Tris HCl, pH 7.4, 100 mM NaCl, 2mM CaCl2, 1 mM MgCl2, 1 mM MnCl2 and 1% BSA).
(§5) One hundred ten microliters of B/B buffer was applied for 60 min at RT. Thirty µl of biotinylated extracellular matrix protein ligand (fibronectin for integrin α5β1, vitronectin for integrin αVβ3 and fibrinogen for integrin αIIbβ3) plus 50 µl of either SJ749 in B/B buffer or B/B buffer alone were added to each well, and incubated for 25 min at RT. Plates were washed twice with B/B buffer and incubated 1 hr at RT, with anti-biotin alkaline phosphatase (100 µl/well) in B/B buffer. Finally, plates were washed twice with B/B followed by the addition of 100 µl of phosphatase substrate (1.5 mg/ml). Reaction was stopped by adding 2N NaOH (25 µl/well), and the developed color was read at 405 nm.

HUVEC's = assay: Cell migration assay (transwell); format: cell-based, human; conditions: 4 hr at 37°C
Protocol: The Lower side of 8 µm pore transwell inserts (Costar, Inc.) were coated with 2 µg/ml of fibronectin, collagen (Collaborative Biomedical Products; Bedford MA) or no protein for 1 hr and were blocked with 2% BSA in PBS for 1 hr. The inserts then were placed into 24 well culture dishes containing 500 µl migration buffer in the lower chamber. Twenty-five thousand HUVEC's in 50 µl of migration buffer (HEPES buffered M199 medium containing 1% BSA, 2 mM MgCl2, 2 mM CaCl2 and 0.2 mM MnCl2) were added to the upper chamber of duplicate inserts containing 50 µl of a solution of 50 µg/ml of anti-α5β1 function blocking antibody (NKI-SAM-1, JBS5 or IIA1), 50 µ/ml of anti-α5β1 non-function blocking antibody (HA5 or VC5), or 50 µg/ml of LM609 (an anti-αVβ3 function blocking antibody) in migration buffer, or migration buffer alone.
Cells were allowed to migrate from the upper to the lower chamber for 4 hr at 37°C. Nonmigratory cells were removed from the upper surface by wiping the upper side with an absorbant tip, and cells that had migrated to the lower side of the transwell insert were fixed for 15 min with 3.7% paraformaldehyde in PBS, then stained with a 2% crystal violet solution. After extensive water washing to remove excess crystal violet, the number of cells that had migrated were counted in three representative high power (200X) fields per insert. […]

[5] = molecular target: T2, α5β1 receptor purified from human placenta (Homo sapiens, UniProt P05556+P08648); assay: Integrin receptor ligand binding assay, α5β1 / fibronectin; conditions: biotinylated fibronectin
T2 construct: α5β1 receptor purified from human placenta; purchased Chemicon International; host or cells: human placenta (tissue-purified)
Protocol: as §4, §5

T2 sequence (P08648 42-894 limits assumed): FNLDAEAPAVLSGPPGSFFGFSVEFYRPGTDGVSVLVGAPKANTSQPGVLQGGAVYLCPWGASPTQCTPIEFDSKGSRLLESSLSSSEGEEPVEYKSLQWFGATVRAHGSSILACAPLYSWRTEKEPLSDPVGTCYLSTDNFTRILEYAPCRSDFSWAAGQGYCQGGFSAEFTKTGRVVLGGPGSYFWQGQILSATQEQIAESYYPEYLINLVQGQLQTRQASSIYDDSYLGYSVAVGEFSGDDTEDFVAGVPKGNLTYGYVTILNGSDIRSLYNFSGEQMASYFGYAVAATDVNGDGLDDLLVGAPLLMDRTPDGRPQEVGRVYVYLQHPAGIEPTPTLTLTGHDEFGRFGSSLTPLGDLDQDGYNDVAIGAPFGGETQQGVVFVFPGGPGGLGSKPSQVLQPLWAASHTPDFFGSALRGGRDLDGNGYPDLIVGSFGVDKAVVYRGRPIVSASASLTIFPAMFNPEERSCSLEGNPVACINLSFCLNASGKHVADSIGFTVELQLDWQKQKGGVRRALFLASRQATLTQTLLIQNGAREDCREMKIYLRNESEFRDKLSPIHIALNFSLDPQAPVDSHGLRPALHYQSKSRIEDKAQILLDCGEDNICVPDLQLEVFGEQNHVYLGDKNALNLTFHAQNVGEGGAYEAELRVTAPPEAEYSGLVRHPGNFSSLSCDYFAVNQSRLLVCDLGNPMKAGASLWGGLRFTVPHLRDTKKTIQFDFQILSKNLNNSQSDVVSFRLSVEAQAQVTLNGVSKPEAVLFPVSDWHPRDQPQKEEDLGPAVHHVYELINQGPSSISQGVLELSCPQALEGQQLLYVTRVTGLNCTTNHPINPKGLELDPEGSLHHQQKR
T2 sequence (P08648 895-1049 partner limits assumed): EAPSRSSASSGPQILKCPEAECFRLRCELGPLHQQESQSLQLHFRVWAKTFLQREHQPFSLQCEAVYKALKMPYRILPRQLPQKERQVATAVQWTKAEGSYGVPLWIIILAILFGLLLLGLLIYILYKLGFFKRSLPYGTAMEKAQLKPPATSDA
T2 sequence (P05556 21-798): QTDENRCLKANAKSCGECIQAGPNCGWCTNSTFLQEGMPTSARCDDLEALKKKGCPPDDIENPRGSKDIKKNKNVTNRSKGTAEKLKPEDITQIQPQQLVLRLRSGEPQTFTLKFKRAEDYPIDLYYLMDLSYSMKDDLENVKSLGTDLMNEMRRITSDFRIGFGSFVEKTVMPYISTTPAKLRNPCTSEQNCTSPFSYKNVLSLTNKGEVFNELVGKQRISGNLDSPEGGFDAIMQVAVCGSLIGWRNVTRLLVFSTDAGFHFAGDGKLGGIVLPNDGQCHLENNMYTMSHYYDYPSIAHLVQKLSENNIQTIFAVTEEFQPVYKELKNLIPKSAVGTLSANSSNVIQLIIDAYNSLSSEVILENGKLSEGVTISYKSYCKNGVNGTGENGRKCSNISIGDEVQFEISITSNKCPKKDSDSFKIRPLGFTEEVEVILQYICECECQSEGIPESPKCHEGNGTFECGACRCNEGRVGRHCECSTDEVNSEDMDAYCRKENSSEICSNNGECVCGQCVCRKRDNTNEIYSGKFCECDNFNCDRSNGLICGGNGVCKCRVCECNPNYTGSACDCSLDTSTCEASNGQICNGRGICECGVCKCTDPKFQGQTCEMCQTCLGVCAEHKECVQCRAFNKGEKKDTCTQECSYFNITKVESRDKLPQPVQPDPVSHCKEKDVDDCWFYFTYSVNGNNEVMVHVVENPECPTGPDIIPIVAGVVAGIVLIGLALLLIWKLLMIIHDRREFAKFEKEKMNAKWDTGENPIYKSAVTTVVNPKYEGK
T1 sequence (P06756 31-889 limits assumed): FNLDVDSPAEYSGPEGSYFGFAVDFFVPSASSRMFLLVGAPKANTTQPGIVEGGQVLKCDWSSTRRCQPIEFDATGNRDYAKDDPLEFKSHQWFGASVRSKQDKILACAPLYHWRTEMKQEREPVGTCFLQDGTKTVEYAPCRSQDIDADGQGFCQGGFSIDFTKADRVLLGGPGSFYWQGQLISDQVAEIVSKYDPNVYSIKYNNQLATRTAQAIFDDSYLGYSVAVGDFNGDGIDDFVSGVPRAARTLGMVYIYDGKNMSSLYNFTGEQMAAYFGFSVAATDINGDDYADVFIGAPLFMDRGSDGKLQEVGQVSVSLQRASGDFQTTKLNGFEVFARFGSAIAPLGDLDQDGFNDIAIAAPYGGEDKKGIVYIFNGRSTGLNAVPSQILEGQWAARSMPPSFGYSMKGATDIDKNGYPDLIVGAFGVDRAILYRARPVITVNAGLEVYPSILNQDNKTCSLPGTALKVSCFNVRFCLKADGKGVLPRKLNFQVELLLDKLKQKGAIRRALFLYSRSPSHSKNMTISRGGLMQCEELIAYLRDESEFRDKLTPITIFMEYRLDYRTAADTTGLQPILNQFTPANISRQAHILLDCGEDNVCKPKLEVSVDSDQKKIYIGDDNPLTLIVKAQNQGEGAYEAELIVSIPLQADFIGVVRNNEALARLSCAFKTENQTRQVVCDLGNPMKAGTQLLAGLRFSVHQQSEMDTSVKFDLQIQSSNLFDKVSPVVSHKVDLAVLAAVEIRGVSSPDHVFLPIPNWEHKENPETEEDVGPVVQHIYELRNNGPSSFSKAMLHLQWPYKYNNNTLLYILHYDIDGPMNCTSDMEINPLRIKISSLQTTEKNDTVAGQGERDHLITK
T1 sequence (P06756 891-1048 partner limits assumed): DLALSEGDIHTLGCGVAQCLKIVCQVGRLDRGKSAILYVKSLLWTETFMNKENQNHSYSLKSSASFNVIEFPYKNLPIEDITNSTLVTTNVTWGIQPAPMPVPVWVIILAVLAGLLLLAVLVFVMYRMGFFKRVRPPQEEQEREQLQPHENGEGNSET
T1 sequence (P05106 27-788): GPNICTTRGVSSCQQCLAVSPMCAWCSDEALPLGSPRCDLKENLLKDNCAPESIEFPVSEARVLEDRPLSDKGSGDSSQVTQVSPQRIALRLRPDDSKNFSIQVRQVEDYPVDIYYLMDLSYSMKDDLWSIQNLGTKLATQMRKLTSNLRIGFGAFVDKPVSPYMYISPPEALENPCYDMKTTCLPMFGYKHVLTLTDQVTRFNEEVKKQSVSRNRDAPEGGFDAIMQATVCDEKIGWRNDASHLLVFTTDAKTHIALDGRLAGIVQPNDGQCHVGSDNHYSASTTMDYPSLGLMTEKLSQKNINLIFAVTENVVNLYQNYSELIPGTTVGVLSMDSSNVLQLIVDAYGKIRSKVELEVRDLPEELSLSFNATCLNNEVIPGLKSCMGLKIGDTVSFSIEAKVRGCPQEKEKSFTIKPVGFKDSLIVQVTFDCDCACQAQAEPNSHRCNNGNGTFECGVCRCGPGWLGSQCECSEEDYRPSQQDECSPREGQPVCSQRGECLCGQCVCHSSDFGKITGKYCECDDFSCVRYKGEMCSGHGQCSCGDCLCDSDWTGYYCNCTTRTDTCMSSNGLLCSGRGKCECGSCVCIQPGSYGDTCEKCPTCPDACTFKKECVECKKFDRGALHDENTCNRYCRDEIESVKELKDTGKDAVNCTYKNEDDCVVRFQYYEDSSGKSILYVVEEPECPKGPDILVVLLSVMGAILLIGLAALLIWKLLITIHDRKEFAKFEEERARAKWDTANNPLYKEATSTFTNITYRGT

Compound	effect on cell attachment to vitronectin (in words) [1]	effect on tumor size (in words) [2]	effect on bFGF-induced angiogenesis (in words) [3]	effect on cell adhesion to fibronectin (in words) [4]	tumors smaller than control treated tumors ([2]; peptide or SJ749 25 µM final serum concentration intravenously) [%]	IC50 (α5^+ HT29 cells) [nM]	effect on VEGF-induced angiogenesis (in words) ([3]; VEGF stimulated CAM)	effect on ligand binding to αVβ3 and other integrins (in words) (Integrin αVβ3)	effect on endothelial cell migration on fibronectin (in words) (HUVEC's)	effect on endothelial cell migration on other matrix proteins, including collagen (in words) (HUVEC's)	effect on ligand binding to α5β1 (in words) [5]
CATAERWRC	little effect on cell adhesion to either fibronectin or vitronectin	continued to increase in size	did not inhibit angiogenesis	little effect on cell adhesion to either fibronectin or vitronectin	–	–	–	–	–	–	–
Cc1cc(C)c(S(=O)(=O)N[C@@H](CNC(=O)C2=NOC3(C2)CC(CNc2ccccn2)N(C(=O)OCc2ccccc2)C3)C(=O)O)c(C)c1 (stereo partly drawn) [SJ749]	ineffective in blocking cell attachment to vitronectin or other extracellular matrix ligands	induced tumor regression on the CAM	blocked bFGF-induced angiogenesis on chick CAM's in a dose-dependent manner when applied either topically or systemically; also recorded: dose dependent inhibitory effect; also recorded: reduced or inhibited angiogenesis in a dose dependent manner	blocked the adhesion of these cells to fibronectin in a concentration-dependent manner; also recorded: inhibitory effect	51	800	did not block VEGF angiogenesis	substantially less effective in blocking ligand binding to αVβ3 and other integrins	highly effective in blocking endothelial cell migration on fibronectin	but not on other matrix proteins such as collagen	selectively inhibited ligand binding to α5β1; also recorded: interfered with α5β1 binding to fibronectin
